Legend:
[1] = Volume of distribution at steady state in rat; assay type: ADME; conditions: in vivo, read-out: Vdss
[2] = Unbound intrinsic clearance in human hepatocytes assessed per million cells; assay type: ADME, cell-based, Hepatocyte
[3] = Unbound intrinsic clearance in dog hepatocytes assessed per million cells; assay type: ADME, cell-based, Canis lupus familiaris, Hepatocyte
[4] = target: T1, Tyrosine-protein kinase Blk (Homo sapiens, UniProt P51451); test: Inhibition of full length recombinant human His-tagged cytoplasmic BLK expressed in baculovirus expression system in presence of 1 mM ATP by KT236 probe based TR-FRET assay
[5] = Half life in monkey plasma; assay type: ADME, Macaca mulatta; conditions: rhesus monkey
[6] = Half life in mouse plasma; assay type: ADME
[7] = Unbound intrinsic clearance in mouse hepatocytes assessed per million cells; assay type: ADME, cell-based, Hepatocyte
[8] = target: Receptor tyrosine-protein kinase erbB-2 (Homo sapiens, UniProt P04626); test: Inhibition of human N-terminal His-tagged HER2 expressed in baculovirus expression system in presence of 1 mM ATP
[9] = Stability in rat liver microsomes; assay type: ADME, microsome; conditions: read-out: Stability
[10] = Half-life in monkey blood; assay type: ADME, tissue-based, Macaca mulatta; conditions: rhesus monkey
[11] = Oral bioavailability in monkey; assay type: ADME, organism-based, Macaca mulatta; conditions: rhesus monkey, in vivo
[12] = Blood clearance in rat; assay type: ADME; conditions: whole blood
[13] = Stability in human liver microsomes; assay type: ADME, microsome; conditions: read-out: Stability
[14] = Blood clearance in dog; assay type: ADME, Canis lupus familiaris; conditions: whole blood
[15] = target: T2, Tyrosine-protein kinase Tec (Homo sapiens, UniProt P42680); test: Inhibition of full length human His-tagged TEC by KT178 probe based TR-FRET assay
T2 sequence (P42680 whole entry): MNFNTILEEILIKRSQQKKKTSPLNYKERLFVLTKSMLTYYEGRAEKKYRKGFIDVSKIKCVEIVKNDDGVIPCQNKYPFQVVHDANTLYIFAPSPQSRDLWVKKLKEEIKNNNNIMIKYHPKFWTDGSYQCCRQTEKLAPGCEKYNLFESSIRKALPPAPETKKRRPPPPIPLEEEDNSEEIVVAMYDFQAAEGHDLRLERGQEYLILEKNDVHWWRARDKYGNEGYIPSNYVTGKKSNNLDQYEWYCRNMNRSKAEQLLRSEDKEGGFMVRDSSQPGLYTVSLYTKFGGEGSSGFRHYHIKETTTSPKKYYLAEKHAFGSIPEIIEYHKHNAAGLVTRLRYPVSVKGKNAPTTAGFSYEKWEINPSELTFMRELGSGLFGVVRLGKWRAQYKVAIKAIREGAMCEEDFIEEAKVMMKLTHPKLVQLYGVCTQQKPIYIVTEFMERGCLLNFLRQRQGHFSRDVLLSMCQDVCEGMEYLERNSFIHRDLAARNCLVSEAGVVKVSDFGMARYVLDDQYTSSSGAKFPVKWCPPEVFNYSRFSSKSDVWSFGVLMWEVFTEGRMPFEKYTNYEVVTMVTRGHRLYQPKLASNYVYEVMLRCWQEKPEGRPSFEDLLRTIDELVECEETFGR

[16] = Aqueous solubility of the compound; assay type: physicochemical
[17] = Volume of distribution at steady state in dog; assay type: ADME, Canis lupus familiaris; conditions: in vivo, read-out: Vdss
[18] = Half life in dog plasma; assay type: ADME, Canis lupus familiaris
[19] = Volume of distribution at steady state in mouse; assay type: ADME, organism-based; conditions: in vivo, read-out: Vdss
[20] = Permeability in RRCK cells; assay type: ADME, cell-based, Canis lupus familiaris, MDCKII-LE; conditions: dog, MDCK; read-out: permeability
[21] = target: T3, Tyrosine-protein kinase TXK (Homo sapiens, UniProt P42681); test: Inhibition of recombinant human N-terminal GST-tagged TXK using GEPLYWSFPAKKK as substrate measured every 60 secs for 1 hr by PK/LDH coupled spectrophotometric assay
T3 sequence (P42681 whole entry): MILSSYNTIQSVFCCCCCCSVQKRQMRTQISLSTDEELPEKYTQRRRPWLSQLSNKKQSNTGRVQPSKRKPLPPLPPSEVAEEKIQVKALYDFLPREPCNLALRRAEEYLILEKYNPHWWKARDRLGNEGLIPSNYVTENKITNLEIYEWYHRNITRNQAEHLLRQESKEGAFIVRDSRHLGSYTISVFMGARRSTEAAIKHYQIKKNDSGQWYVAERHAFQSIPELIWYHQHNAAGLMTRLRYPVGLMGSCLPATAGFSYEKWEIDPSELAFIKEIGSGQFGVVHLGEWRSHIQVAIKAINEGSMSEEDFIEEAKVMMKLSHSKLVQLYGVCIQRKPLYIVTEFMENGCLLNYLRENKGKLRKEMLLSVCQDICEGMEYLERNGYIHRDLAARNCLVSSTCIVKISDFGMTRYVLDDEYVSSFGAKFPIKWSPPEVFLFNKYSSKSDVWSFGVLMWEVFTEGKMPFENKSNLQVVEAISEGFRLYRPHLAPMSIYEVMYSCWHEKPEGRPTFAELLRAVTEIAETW

[22] = Oral bioavailability in mouse; assay type: ADME, organism-based; conditions: in vivo
[23] = Half-life in rat blood; assay type: ADME, tissue-based
[24] = target: T1, Tyrosine-protein kinase Blk; test: Inhibition of full length recombinant human His-tagged cytoplasmic BLK expressed in baculovirus expression system by KT236 probe based TR-FRET assay
[25] = target: T4, Dual specificity mitogen-activated protein kinase kinase 7 (Homo sapiens, UniProt O14733); test: Inhibition of human N-terminal GST-tagged full length MAP2K7 expressed in baculovirus infected Sf21 insect cells in presence of 1 mM ATP
T4 sequence (O14733 whole entry): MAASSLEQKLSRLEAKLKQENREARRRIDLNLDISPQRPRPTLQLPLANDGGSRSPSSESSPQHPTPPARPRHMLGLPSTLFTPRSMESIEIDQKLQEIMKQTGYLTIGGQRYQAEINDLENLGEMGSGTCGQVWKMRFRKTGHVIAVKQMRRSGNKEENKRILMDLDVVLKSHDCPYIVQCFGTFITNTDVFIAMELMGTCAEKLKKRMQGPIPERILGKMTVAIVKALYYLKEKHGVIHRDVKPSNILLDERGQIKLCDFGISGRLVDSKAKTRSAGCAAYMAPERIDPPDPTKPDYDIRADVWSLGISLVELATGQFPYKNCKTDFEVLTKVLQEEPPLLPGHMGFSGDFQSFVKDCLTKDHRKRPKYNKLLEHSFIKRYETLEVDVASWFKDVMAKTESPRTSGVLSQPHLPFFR

[26] = Blood clearance in mouse; assay type: ADME, organism-based; conditions: whole blood
[27] = Half-life in Sprague-Dawley rat blood at 1 uM by LC-MS/MS analysis; assay type: ADME, tissue-based
[28] = Volume of distribution at steady state in monkey; assay type: ADME, Macaca mulatta; conditions: rhesus monkey, in vivo; read-out: Vdss
[29] = target: Epidermal growth factor receptor (Homo sapiens, UniProt P00533); test: Inhibition of N-terminal GST-tagged human EGFR cytoplasmic domain expressed in baculovirus infected Sf21 insect cells in presence of 1 mM ATP
[30] = Blood clearance in monkey; assay type: ADME, Macaca mulatta; conditions: rhesus monkey, whole blood
[31] = Oral bioavailability in dog; assay type: ADME, organism-based, Canis lupus familiaris; conditions: in vivo
[32] = Unbound intrinsic clearance in monkey hepatocytes assessed per million cells; assay type: ADME, cell-based, Macaca mulatta, Hepatocyte; conditions: rhesus monkey
[33] = Half life in rat plasma; assay type: ADME
[34] = Oral bioavailability in rat; assay type: ADME, organism-based; conditions: in vivo
[35] = Unbound intrinsic clearance in rat hepatocytes assessed per million cells; assay type: ADME, cell-based, Hepatocyte

T1 sequence (P51451 whole entry): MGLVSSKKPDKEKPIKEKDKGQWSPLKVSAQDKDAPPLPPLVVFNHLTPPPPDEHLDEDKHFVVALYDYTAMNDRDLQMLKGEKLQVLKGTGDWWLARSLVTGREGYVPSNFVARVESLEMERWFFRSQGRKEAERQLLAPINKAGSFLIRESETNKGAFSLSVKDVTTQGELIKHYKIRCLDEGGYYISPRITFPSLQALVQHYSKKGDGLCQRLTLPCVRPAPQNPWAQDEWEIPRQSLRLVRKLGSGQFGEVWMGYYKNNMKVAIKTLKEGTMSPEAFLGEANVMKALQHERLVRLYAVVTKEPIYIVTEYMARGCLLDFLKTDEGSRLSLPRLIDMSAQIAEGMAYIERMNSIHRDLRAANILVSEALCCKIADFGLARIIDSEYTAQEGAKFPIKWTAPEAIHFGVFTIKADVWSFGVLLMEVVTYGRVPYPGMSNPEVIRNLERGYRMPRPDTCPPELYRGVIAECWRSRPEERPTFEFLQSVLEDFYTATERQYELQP
Chain of Epidermal growth factor receptor (P00533 whole entry, the tested form may be a part): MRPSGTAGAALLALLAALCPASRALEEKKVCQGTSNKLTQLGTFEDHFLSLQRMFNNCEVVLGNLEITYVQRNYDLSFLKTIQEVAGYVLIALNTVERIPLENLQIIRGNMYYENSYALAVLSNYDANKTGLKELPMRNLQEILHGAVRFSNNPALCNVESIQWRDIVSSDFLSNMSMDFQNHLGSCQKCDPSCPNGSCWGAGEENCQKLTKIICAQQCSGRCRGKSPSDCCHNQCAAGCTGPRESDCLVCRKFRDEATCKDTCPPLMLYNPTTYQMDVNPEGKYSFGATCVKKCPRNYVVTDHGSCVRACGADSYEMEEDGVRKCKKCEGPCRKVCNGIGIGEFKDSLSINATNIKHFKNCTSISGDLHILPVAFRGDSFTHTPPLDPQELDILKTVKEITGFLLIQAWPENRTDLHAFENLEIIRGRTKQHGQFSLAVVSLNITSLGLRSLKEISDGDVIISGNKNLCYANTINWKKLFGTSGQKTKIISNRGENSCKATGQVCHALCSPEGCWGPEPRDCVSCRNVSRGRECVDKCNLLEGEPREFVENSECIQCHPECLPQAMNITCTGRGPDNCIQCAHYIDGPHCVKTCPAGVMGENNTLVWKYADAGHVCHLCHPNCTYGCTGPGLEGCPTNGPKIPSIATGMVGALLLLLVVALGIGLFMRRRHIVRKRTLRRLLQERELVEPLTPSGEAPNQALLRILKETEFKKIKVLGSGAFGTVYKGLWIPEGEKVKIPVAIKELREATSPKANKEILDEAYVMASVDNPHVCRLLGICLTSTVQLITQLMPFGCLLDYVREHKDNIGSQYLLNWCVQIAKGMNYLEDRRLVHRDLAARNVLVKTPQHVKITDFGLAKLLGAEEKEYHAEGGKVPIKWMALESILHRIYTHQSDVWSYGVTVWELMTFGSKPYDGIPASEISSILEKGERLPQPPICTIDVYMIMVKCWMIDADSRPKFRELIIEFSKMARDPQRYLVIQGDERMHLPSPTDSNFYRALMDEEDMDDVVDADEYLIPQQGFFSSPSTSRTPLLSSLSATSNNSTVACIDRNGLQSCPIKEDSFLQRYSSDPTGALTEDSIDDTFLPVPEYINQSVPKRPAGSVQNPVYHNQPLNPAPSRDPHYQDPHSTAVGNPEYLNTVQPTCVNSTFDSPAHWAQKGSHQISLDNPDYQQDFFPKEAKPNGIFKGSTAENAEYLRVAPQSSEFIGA
Chain of Receptor tyrosine-protein kinase erbB-2 (P04626 whole entry): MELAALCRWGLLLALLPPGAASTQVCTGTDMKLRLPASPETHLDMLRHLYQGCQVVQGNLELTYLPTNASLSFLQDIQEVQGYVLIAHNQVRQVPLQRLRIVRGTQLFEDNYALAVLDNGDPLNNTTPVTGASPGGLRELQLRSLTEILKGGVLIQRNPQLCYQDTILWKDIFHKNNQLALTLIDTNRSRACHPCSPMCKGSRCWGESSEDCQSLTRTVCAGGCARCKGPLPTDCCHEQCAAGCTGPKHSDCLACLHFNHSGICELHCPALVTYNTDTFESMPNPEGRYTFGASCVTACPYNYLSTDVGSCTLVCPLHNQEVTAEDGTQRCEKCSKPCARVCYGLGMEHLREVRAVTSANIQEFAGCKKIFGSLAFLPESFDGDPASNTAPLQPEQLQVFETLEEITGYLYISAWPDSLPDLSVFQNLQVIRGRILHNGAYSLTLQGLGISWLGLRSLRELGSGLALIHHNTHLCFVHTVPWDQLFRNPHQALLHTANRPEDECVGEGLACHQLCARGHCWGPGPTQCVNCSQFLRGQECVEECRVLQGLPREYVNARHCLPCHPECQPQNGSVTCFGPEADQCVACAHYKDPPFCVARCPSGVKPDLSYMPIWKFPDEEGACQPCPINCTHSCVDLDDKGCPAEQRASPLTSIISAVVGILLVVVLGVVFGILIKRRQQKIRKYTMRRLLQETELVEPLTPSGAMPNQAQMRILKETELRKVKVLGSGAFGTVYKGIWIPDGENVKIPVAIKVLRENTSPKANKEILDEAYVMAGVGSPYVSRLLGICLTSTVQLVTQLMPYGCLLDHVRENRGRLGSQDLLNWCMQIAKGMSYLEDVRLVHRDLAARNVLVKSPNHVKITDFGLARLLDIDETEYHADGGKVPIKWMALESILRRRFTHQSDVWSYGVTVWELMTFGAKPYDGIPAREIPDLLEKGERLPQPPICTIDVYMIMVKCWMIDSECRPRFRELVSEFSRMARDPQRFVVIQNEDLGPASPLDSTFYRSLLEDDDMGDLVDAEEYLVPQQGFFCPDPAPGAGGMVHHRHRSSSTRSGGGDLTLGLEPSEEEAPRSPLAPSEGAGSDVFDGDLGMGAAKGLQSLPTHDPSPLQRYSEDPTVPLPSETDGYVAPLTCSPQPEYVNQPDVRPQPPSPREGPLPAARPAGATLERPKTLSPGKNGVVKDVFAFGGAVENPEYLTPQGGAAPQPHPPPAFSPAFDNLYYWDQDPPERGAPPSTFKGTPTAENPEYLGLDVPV

Vd [1]: 1.4 L/kg | CL free [2]: 2.8 µL/min | CL free [3]: 2.1 µL/min | IC50 [4]: 19 µM | half-life [5]: 0.7 h | half-life [6]: 1.3 h | CL free [7]: 53 µL/min | IC50 [8]: > 50 µM | microsomal CLint [9]: < 15 µL/min/mg | half-life [10]: 0.617 h | bioavailability [11]: 56% | clearance [12]: 3.18 L/h/kg | microsomal CLint [13]: 8 µL/min/mg | clearance [14]: 0.516 L/h/kg | Ki [15]: 0.679 µM | solubility [16]: > 2 mg/mL | Vd [17]: 1.1 L/kg | half-life [18]: 1.1 h | Vd [19]: 0.8 L/kg | Papp [20]: 150 nm/s | Ki [21]: 0.131 µM | bioavailability [22]: 62% | half-life [23]: 2.68 h | Ki [24]: 32.4 µM | IC50 [25]: > 50 µM | clearance [26]: 2.88 L/h/kg | half-life at 1 µM [27]: 2.68 h | Vd [28]: 2.6 L/kg | IC50 [29]: > 50 µM | clearance [30]: 2.52 L/h/kg | bioavailability [31]: 109% | CL free [32]: 7.6 µL/min | half-life [33]: 0.3 h | bioavailability [34]: 85% | CL free [35]: 14 µL/min
Compound: C=CC(=O)N1C[C@H](Nc2ncnc3[nH]ccc23)CC[C@@H]1C [RITLECITINIB]
